Assay results reported in patent US11440932B2, “Surfactant compounds-clips for extraction and stabilization in solution of membrane proteins” (CENTRE NATIONAL DE LA RECHERCHE SCIENTIFIQUE, priority 2017, dated 2022).
“Also recorded” adds a separate entry of the source. Residues, ends and D or L forms follow the SMILES beside them. *: point of attachment. Palmitoyl = CCCCCCCCCCCCCCCC(=O)*

Key:
BmrA [1] = target: T1, BmrA (Bacillus subtilis, UniProt O06967); assay: Extraction of BmrA from membranes (SDS-PAGE of supernatant); design: species or system bacterial; overexpressed in E. coli C41DE3; conditions: detergent 10 g/l unless indicated otherwise; 2 h at 4° C.
T1 construct: His tag; made in house; host or cells: E. coli C41(DE3)
T1 sequence (O06967 whole entry): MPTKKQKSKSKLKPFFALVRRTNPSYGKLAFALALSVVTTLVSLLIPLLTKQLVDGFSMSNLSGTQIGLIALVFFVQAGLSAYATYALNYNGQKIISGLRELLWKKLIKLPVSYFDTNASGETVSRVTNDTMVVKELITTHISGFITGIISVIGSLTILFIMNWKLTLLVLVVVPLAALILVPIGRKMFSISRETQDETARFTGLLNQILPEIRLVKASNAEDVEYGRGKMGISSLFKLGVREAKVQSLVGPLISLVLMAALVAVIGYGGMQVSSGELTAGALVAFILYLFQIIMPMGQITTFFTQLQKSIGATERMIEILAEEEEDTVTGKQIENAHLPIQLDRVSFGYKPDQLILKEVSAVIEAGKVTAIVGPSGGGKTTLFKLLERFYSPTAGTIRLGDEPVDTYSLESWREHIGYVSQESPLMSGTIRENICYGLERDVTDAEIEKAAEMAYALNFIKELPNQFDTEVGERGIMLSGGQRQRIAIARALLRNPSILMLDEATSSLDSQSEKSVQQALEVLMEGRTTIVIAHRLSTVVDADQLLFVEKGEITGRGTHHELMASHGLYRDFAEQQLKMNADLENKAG
Method: (§1) FIG. 6 depicts the extraction of the membrane proteins BmrA (panels A and C) and AcrB (panels B and D) using commercial detergents and the molecules of the invention (panels A and B, from left to right): SDS, DDM, FC12, TX100, compounds of the invention 1.4, 1.5, 2.3a, 2.3b, 2.3c, 2.3d, 2.3e, 2.3f, 2.3g, 2.3h, 2.3i, 3.7a, 3.7b; panel C: compounds of the invention 3.7c 0.8%, 3.7d 0.16%, 3.7e 0.8%, 3.7f 0.3%, 3.7g 0.4%, 3.7h 0.2%, 3.7i 0.07%, 3.7j 0.09%, 3.7k, 3.7l, 0.25%, 3.9a, 4.5a, 4.5b, 4.5c, 4.5d 0.34%, 4.6a, 4.6b, 4.6c, 4.6d, 5.3a, 5.3b, 5.3c 0.3%, 5.3d 0.3%; panel D: 3.7c, 3.7d, 3.7e, 3.7f, 3.7h, 3.7i 0.1%, 3.7j, 3.7k, 3.7l, 3.9a, 4.5a, 4.5b, 4.5c, 4.5d, 4.6a, 4.6b, 4.6c, 4.6d. The detergents are added at 10 g/l (1%), unless indicated otherwise. The equivalent of 20 μg of proteins of the extracted fraction after centrifugation at 100 000×g for 30 min is deposited on 10% SDS-PAGE, stained with Coomassie blue after migration. BmrA migrates in its monomeric form to the level of the 55 kDa band; AcrB migrates in its monomeric form to the level of the 100 kDa band. SDS=sodium dodecyl sulfate; DDM=β-D-dodecyl maltoside; FC12=foscholine-12; TX100=triton X-100.
(§2) The extraction capacity of the detergents of the series is tested on membranes in which BmrA or AcrB are strongly expressed. The extraction with the clips (molecules of the invention) is compared to that obtained with commercial detergents, used as reference.
(§3) Procedure. BmrA represents 25% of the proteins present in the overexpression system used (E. coli, C41DE3). These membranes are prepared as described previously (Matar-Merheb, R. et al. ([11])). The membranes containing AcrB (approximately 20% of the membrane proteins, same expression system as BmrA) were prepared as described previously (Seeger, M. A. et al. ([21])). The detergents are used at 10 g/l unless indicated otherwise, and the proteins diluted at 2 g/l in a 20 mM Tris-HCl buffer, pH 8.0, 100 mM NaCl, 15% glycerol, with protease inhibitors (Roche) added thereto at an amount of one tablet/100 ml. The mixture (T) is incubated for 2 h at 4° C. then centrifuged for 1 h at 4° C. at 100 000×g in order to separate the extracted fraction (supernatant, S) from that which is not extracted (pellet). The supernatants are deposited on 10% SDS-PAGE and stained with Coomassie blue after migration. The foscholine 12, DDM and LMNG originate from Anatrace, the SDS and Triton X100 originate from Sigma-Aldrich.

[2] = Diameter of micelles by dynamic light scattering (DLS); assay type: physicochemical; conditions: estimated micelle diameter by DLS; 30 mM tris-HCl, pH 8.0
Method: FIG. 5 depicts the dynamic light scattering (DLS) of clips, in intensity (%, column A on the left) and in number (%, column B on the right), as a function of the […] (nm). The estimated diameters are indicated on each panel (column A). Columns A and B, from top to bottom: compound 3.7c (10 mM, 5×CMC), compound 3.7d (10 mM, 5×CMC), compound 3.7e (2 mM, […]), compound 3.7f (10 mM, 500×CMC), compound 3.7h (1 mM, 100×CMC), compound 3.7j (2 mM, 100×CMC), compound 3.9a (1 mM, 50×CMC).
Another physicochemical parameter of the micelles of detergents is their diameter, assuming that they are spherical. This dimension is obtained by the light scattering (DLS) technique.
Procedure. The molecules of the invention tested were prepared in a range of concentrations extending from 0.1 to 1000×CMC in 30 mM tris-HCl, pH 8.0 and neutralized at this pH. The solutions are filtered on 0.22 μm. The measurement is carried out on 100 μl, in triplicate on a Zetasizer Nano-S from Malvern Instruments.

AcrB = target: T2, AcrB (Escherichia coli, UniProt P31224); assay: Extraction of AcrB from membranes (SDS-PAGE of supernatant); design: species or system bacterial; same expression system (E. coli C41DE3); conditions: for extraction of AcrB: detergent 10 g/l unless indicated otherwise, 2 h at 4° C.
T2 construct: made in house; host or cells: E. coli C41(DE3)
T2 sequence (P31224 whole entry): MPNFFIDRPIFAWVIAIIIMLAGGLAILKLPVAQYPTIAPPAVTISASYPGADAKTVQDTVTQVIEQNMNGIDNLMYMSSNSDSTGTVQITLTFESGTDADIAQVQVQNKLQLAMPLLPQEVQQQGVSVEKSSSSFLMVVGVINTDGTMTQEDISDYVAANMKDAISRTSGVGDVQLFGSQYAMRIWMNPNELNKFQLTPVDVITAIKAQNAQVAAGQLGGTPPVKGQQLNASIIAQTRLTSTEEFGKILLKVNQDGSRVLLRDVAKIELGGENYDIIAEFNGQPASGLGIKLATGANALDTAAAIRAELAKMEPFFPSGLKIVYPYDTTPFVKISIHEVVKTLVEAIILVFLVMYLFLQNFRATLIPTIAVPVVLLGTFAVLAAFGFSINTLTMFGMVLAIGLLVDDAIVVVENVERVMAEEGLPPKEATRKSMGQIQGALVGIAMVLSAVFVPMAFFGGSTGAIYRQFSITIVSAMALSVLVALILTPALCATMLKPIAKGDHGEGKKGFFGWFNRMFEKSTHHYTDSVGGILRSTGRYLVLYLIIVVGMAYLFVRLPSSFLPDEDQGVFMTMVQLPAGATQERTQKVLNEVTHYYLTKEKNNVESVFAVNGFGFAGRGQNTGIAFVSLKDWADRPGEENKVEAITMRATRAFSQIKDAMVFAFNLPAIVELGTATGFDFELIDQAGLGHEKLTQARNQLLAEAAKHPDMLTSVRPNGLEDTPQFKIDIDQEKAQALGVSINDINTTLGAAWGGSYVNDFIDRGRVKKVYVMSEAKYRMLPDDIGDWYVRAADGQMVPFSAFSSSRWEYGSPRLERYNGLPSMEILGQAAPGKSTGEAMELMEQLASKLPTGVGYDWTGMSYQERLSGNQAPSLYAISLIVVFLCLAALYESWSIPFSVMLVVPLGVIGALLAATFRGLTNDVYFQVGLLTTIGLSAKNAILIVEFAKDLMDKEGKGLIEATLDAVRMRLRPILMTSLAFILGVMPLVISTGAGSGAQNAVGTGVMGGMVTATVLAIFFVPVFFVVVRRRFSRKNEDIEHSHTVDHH
Method: as §1, §2, §3

[3] = Critical micelle concentration (CMC) by DPH fluorescence; assay type: physicochemical; conditions: for CMC: 50 mM tris-HCl, pH 8.0
Method: FIG. 4 represents the fluorescence (%) of DPH (1,6-diphenyl-1,3,5-hexatriene) in the presence of increasing concentrations (0.0001 mM, 0.001 mM, 0.01 mM, 0.1 mM, 1 mM and 10 mM) of clips (compounds of the invention), exemplified with the compounds #3.7e (C13, points represented by squares) and 3.7f (C18, points represented by circles). The experiment is carried out in triplicates. In accordance with Chattopadhyay, A. & London, E ([22]), the CMC corresponds to the concentration at which the breakage in the slope is observed, here at 20 μM for 3.7f and 2 mM for 3.7e (black symbols).
Procedure. The molecules of the invention were prepared in a range of concentrations extending from 0.1 μM to 10 mM in 50 mM tris-HCl, pH 8.0 and neutralized at this pH. To 80 μl of each solution (triplicate), the same volume of 10 μM of 1,6-diphenyl-1,3,5-hexatriene (DPH, Sigma, D208000) is added, prepared at 100 μM in tetrahydrofuran then diluted 10-fold in H2O. The increase in the fluorescence of the DPH occurs when the latter find micelles of clips into which it can insert itself (Chattopadhyay, A. & London, E. Fluorimetric determination of critical micelle concentration avoiding interference from detergent charge. Anal Biochem 139, 408-412 (1984) ([22])). The fluorescence is read with a Xenius SAFAS fluorimeter by exciting at 358 nm and recording the fluorescence emission at 430 nm, with slits of 9 to 10 nm for the excitation and the emission and a gain of 100 to 150, depending on the cases.
Results. The CMC of the detergents is the concentration starting from which they associate with one another to form micelles, in which, in aqueous solution, the hydrophobic portions are grouped together at the center and the hydrophilic regions are exposed to the solvent. […] A typical result obtained with a compound 3.7 provided with a C13 (3.7e) or C18 ([…]) aliphatic chain is illustrated in FIG. 4.

BmrA [4] = target: T1, BmrA; assay: ATPase activity of BmrA after addition of detergents; assay type: biochemical, bacterial; produced in E. coli C41 DE3
Method: FIG. 7 depicts the effect of the detergents of the invention on the functionality of BmrA (ATPase activity, %). The membrane fraction enriched in BmrA (˜25%) diluted to 2 g/l has the compounds added to it at the concentrations (mM) indicated (panel A, from top to bottom: 3.7e 10.7 mM, 3.7e 8.6 mM, 3.7e 6.4 mM, 3.7e 4.3 mM, 3.7e 2.2 mM, 3.7e 1.1 mM, 3.7d 4 mM, 3.7d 3 mM, 3.7d 2 mM, 3.7d 1 mM, 3.7d 0.8 mM, 3.7d 0.6 mM, 3.7d 0.05 mM, 3.7d 0.03 mM, 3.7d 0.02 mM, 3.7c 13 mM, 3.7c 10.4 mM, 3.7c 10 mM, 3.7b 1.5 mM, 3.7b 0.7 mM, 3.7b 0.5 mM, 2.3gNa2 20.5 mM, 2.3gK2 19.3 mM, 2.3f 21.1 mM, 2.3e 22 mM, 2.3d 23.2 mM, 2.3a 3.2 mM, 1.5a 22 mM, DDM 20 mM, DDM 2 mM, DDM 10 mM, DOM 2 mM, DDM 1 mM, LMNG 10 mM, LMNG 1 mM, LMNG 0.1 mM, LMNG 0.01 mM, FA3 27 mM, FA3 9 mM, FA3 2 mM, FA3 1 mM, TX100 16 mM; panel B from top to bottom: compounds of the invention 5.3d 3.2 mM, 5.3c 3.3 mM, 5.3b 11.7 mM, 5.3b 2.9 mM, 5.3a 3 mM, 4.6c 14.6 mM, 4.6b 15.2 mM, 4.5c 18.6 mM, 4.5b 19.6 mM, 3.9a 8 mM, 3.9a 0.51 mM, 3.9a 0.31 mM, 3.9a 0.11 mM, 3.7l 12.01 mM, 3.7l 6.01 mM, 3.7l 3 mM, 3.7l 1 mM, 3.7k 10 mM, 3.7k 3 mM, 3.7j 3 mM, 3.7j 2 mM, 3.7j 1 mM, 3.7j 0.6 mM, 3.7j 0.03 mM, 3.7j 0.02 mM, 3.7j 1 mM, 3.7i 0.3 mM, 3.7h 3 mM, 3.7h 2 mM, 3.7h 1 mM, 3.7h 0.6 mM, 3.7h 0.58 mM, 3.7h 0.5 mM, 3.7h 0.35 mM, 3.7h 0.1 mM, 3.7h 0.5 mM, 3.7h 0.35 mM, 3.7h 0.1 mM, 3.7h 0.05 mM, 3.7h 0.03 mM, 3.7h 0.02 mM, 3.7g 12.5 mM, 3.7g 9 mM, 3.7g 7.5 mM, 3.7g 5 mM, 3.7g 3 mM, 3.7g 1 mM, 3.7f 3.2 mM, 3.7f 2 mM, 3.7f 1 mM, 3.7f 0.061 mM, 3.7f 0.031 mM, 3.7f 0.015 mM). After incubation for 2 h at 4° C., the ATPase activity is measured. The solutions are subsequently centrifuged for 1 h at 4° C., 100 000×g, and the supernatants deposited on 10% SDS-PAGE (cf. FIG. 8). The gray and black histograms correspond to the concentrations at which BmrA is partially (gray) or entirely (black) extracted, according to these SDS-PAGE. The ATPase activity is in % relative to that of the protein without compound, 0.7 μmol ATP hydrolyzed/min/mg of proteins.
The molecules of the invention which extract BmrA in the previous example were tested at different sub-solubilizing and solubilizing concentrations, to evaluate their impact on the native and functional state of the protein. The latter is monitored by the hydrolysis of ATP which is carried out by the protein during the transport cycle, coupled with translocation of the solute. As reported previously (Matar-Merheb, R. et al. ([11])), the ATPase activity of BmrA is a highly sensitive marker of the state of the protein, the latter being particularly sensitive to the detergents used during the extraction step, where said detergents replace the lipids on contact with the membrane protein.
Procedure. BmrA produced and enriched in the plasma membrane of E. coli C41 DE3 is prepared as described previously (Matar-Merheb, R. et al. ([11])). The membranes are diluted at 2 g/l in a 20 mM Tris-HCl buffer, pH 8.0, 100 mM NaCl, 15% glycerol, with protease inhibitors (Roche) added thereto at an amount of one tablet/100 ml. The mixture (T) is incubated for 2 h at 4° C. and the ATPase activity is measured using the coupled-enzyme system, separating off the vanadate-insensitive activity from the total activity, Centeno, F. et al. Expression of the sarcoplasmic reticulum Ca^2+-ATPase in yeast. FEBS Lett 354, 117-122 (1994) ([25])). The solutions are subsequently centrifuged for 1 h at 4° C. at 100 000×g in order to separate the extracted fraction (supernatant, S) from that which is not extracted (pellet). The supernatants are deposited on 10% SDS-PAGE and stained with Coomassie blue after migration (FIG. 8). DDM, LMNG (Chae, P. S. et al. ([6])), TritonX100 and FA3 (Lee, S. C. et al. (2013) ([9])) are tested as reference detergents. The DDM and LMNG originate from Anatrace, the Triton X100 originates from Sigma-Aldrich and the FA3 from Avanti-Polars.

In the case of `CCCCCCCCCCCCCCCCCCC(=O)N[C@@H](COCc1cn(CCO[C@@H]2OC(CO)[C@@H](O)C(O)C2O)nn1)C(=O)N[C@H](CCC(=O)O)C(=O)O` (stereo partly drawn) [Compound 3.7d], the “extraction of BmrA” value (BmrA [1]) is reported as “partially extracting”, the “Ø, nm” value [2] is reported as 5.5 nm and the “extraction of AcrB” value (AcrB) is reported as “extracting”. For the same molecule, the “CMC” value [3] was 0.02 mM.
In the case of `CCCCCCCCCCCCCCCCCCC(=O)N[C@@H](COCc1cn(CCO[C@@H]2OC(CO)[C@@H](O[C@H]3OC(CO)[C@@H](O)C(O)C3O)C(O)C2O)nn1)C(=O)N[C@H](CCC(=O)O)C(=O)O` (stereo partly drawn) [Compound 3.7f], the “extraction of BmrA” value (BmrA [1]) is reported as “extracting”, the “Ø, nm” value [2] is reported as 4.0 nm and the “extraction of AcrB” value (AcrB) is reported as “extracting”. The “CMC” value [3] was 0.02 mM and the “CMC (breakage in the slope of DPH fluorescence, FIG. 4)” value ([3]; triplicates) was 20 µM.
With `CCCCCCCCCCCCCCCC(=O)NC(CC(=O)NC(CCC(=O)O)C(=O)O)C(=O)NC(CCC(=O)O)C(=O)O` (stereo not drawn) [Compound 4.6d] (Palmitoyl-Asp(Glu)-Glu-OH; configuration not given here) the “extraction of BmrA” value (BmrA [1]) was “extracting”, the “selective extraction AcrB versus BmrA” value (AcrB; comparison of extraction of AcrB and BmrA) was “not extract, or only very slightly extract, AcrB, unlike BmrA” and the “extraction of AcrB” value (AcrB) was “extracting; also recorded: partially extract”. The “CMC” value [3] was 1 mM.
With `CCCCCCCCCCC(CCCCCCCCCC)(CO[C@@H]1O[C@H](CO)[C@@H](O[C@H]2O[C@H](CO)[C@@H](O)[C@H](O)[C@H]2O)[C@H](O)[C@H]1O)CO[C@@H]1O[C@H](CO)[C@@H](O[C@H]2O[C@H](CO)[C@@H](O)[C@H](O)[C@H]2O)[C@H](O)[C@H]1O` [LMNG, lauryl maltose neopentyl glycol, reference compound] the “ATPase activity of BmrA” value (BmrA [4]; relative to protein without compound, at concentrations that solubilize/extract BmrA (LMNG 10 mM; DDM beyond 5 mM), 2 h at 4° C.) was 25% and the “impact on the activity of BmrA” value (BmrA [4]; up to 1 mM) was “relatively low impact”.
